Reference: patent US9421194B2, “Lung targeting dual drug delivery system” (priority 2010, dated 2016)

Tests used:
[1] = test system: A549 cell orthotopic lung cancer; test: Anti-cancer efficacy in orthotopic rat lung cancer model; format: in vivo, nude rats; conditions: 2 mg/kg IV every 3 days for 27 days; p<0.05
Protocol: PEGylated 6 μm polystyrene MPs with three copies of the norvaline (Nva) α-amino acid prodrug of CPT were prepared. […] The treatment was conducted every 3 days for 27 days. The day after the last treatment, all animals were euthanized, and organs (lung, heart, […], spleen and […]) were dissected and weighed. The organs were fixed in 10% neutral buffered formalin for H&E staining. […] See references 74 and 86, which are incorporated herein by reference as if fully set forth.

[2] = Systemic (plasma) concentration of CPT after single bolus IV injection; format: in vivo, rats; conditions: free CPT IV, 2 mg/kg
Protocol: FIG. 9 illustrates systemic (plasma) concentration of camptothecin (CPT) as a function of time after a single bolus IV injection of CPT-Nva-MPs (CPT dose=0.2 mg/kg) (squares) and free CPT (2 mg/kg) (triangles). Values are reported as mean±SD. The lower limit of quantitation was 0.1 ng/mL.
PEGylated 6 μm polystyrene MPs with three copies of the norvaline (Nva) α-amino acid prodrug of CPT were prepared. […] Referring to FIG. 10, anti-cancer efficacy was evaluated in an orthotopic rat lung cancer model and compared to a bolus injection of CPT. One week after A549 cell inoculation, nude rats were injected IV with CPT-Nva-MPs (50 and 100 mg/kg equivalent to CPT at 0.11 mg/kg and 0.22 mg/kg), free CPT (2 mg/kg) or vehicle control (saline containing 0.1% Tween 80). The treatment was conducted every 3 days for 27 days. The day after the last treatment, all animals were euthanized, and organs (lung, heart, […], spleen and […]) were dissected and weighed. The organs were fixed in 10% neutral buffered formalin for H&E staining. […] In addition, 40% of the animals receiving CPT-Nva-MPs (0.22 mg/kg) were free of cancer. […] See references 74 and 86, which are incorporated herein by reference as if fully set forth.

**Q.** Which results are given for `CC[C@@]1(O)C(=O)OCc2c1cc1n(c2=O)Cc2cc3ccccc3nc2-1` [free CPT, camptothecin]?
**A.** area of lung cancer versus untreated animals [1]: smaller areas of lung cancer; systemic CPT exposure (in words) [2]: high but short-lived systemic exposures
